Test system: Plasmodium berghei
Assay: Luciferase/luciferin-expressing antifolate-resistant parasites were used to infect a culture of HepG2 cells that were pre-incubated with compounds. Infected hepatocytes emit light due to the luciferase reaction. Assay results are presented as the percent inhibition of light emission compared to control. […]
Type: functional
Settings: sporozoite; for IC90: read-out: LUCIFERASE INFECTION ASSAY - IC90
[1] = read-out: LUCIFERASE INFECTION ASSAY - IC50

SMILES: CCC(C)c1ccc(S(=O)(=O)N(Cc2ccc(C(=O)NC3CC3)cc2)C2CC2)cc1 (configuration not stated)
- IC50 (PBLUC_HILL_SLOPE 1.25, PBLUC_R_SQUARED 0.781, read-out: LUCIFERASE INFECTION ASSAY - IC50): 0.394 µM
- IC90: 2.3 µM

SMILES: COC(=O)C1CC2CCCCC2N1C(=O)c1nn(C)c(=O)c2ccccc12 (configuration not stated)
- IC50 [1]: > 10 µM
- IC90: > 10 µM

SMILES: O=c1cc(CSc2nc3ccccc3c(=O)n2Cc2ccccc2)c2cc(O)c(O)cc2o1
- IC50 (FFLUC_HILL_SLOPE 22, FFLUC_R_SQUARED 0.332, read-out: LUCIFERASE INFECTION ASSAY - IC50): > 10 µM
- IC90: > 10 µM

SMILES: CC1=C(C(=O)OCc2ccccc2)C(c2ccc(Cl)c([N+](=O)[O-])c2)n2nnnc2N1 (configuration not stated)
- IC50 (HEPG2TOX_HILL_SLOPE 0.964, HEPG2TOX_R_SQUARED 0.562, read-out: LUCIFERASE INFECTION ASSAY - IC50): > 10 µM
- IC90: > 10 µM

SMILES: Cc1nc(SC(C)C(=O)c2c[nH]c3ccccc23)c2c(=O)n(C)c(=O)n(CC(C)C)c2n1 (configuration not stated)
- IC50 (FFLUC_HILL_SLOPE 11.3, FFLUC_R_SQUARED 0.363, PBLUC_HILL_SLOPE 2.42, PBLUC_R_SQUARED 0.455, read-out: LUCIFERASE INFECTION ASSAY - IC50): 7.35 µM
- IC90: > 10 µM

SMILES: CSc1nccc(-c2sc(SC)c3c2CCCC3=O)n1
- IC50 [1]: > 10.2 µM
- IC90: > 10.2 µM

SMILES: CN1CCN(C(c2ccccn2)c2c(-c3ccccc3)n(O)c3ccccc23)CC1 (configuration not stated)
- IC50 (FFLUC_HILL_SLOPE 1.05, FFLUC_R_SQUARED 0.622, read-out: LUCIFERASE INFECTION ASSAY - IC50): > 10 µM
- IC90: > 10 µM

SMILES: CN(CCC#N)C(=S)NCCc1ccccc1
- IC50 [1]: > 10 µM
- IC90: > 10 µM

SMILES: CN1CCN(c2ccc(-c3cn4c(-c5ccc(O)cc5)cnc4cn3)cc2)CC1
- IC50 (FFLUC_HILL_SLOPE 7.73, FFLUC_R_SQUARED 0.293, read-out: LUCIFERASE INFECTION ASSAY - IC50): > 8.56 µM
- IC90: > 8.56 µM

SMILES: CC(C)Cc1nc(N2CCN(C(=O)c3ccco3)CC2)c(C#N)c2c1CCCC2
- IC50 [1]: 3.18 µM
- IC90: 3.93 µM

SMILES: O=C(NCCO)c1cccc(-c2ccc3ncc(-c4ccc5c(c4)OCO5)n3n2)c1
- IC50 (HEPG2TOX_HILL_SLOPE 1.62, HEPG2TOX_R_SQUARED 0.792, PBLUC_HILL_SLOPE 12.2, PBLUC_R_SQUARED 0.362, read-out: LUCIFERASE INFECTION ASSAY - IC50): 3.22 µM
- IC90: 3.86 µM

SMILES: O=c1nc(CN2CCN(c3ccc(C(F)(F)F)cn3)CC2)[nH]c2ccccc12
- IC50 [1]: > 10 µM
- IC90: > 10 µM

SMILES: C=CCN(c1ccccc1Cl)S(=O)(=O)c1cc(C(=O)NCc2cn3cc(Cl)ccc3n2)ccc1Cl
- IC50 (FFLUC_HILL_SLOPE 155, FFLUC_R_SQUARED 0.0996, read-out: LUCIFERASE INFECTION ASSAY - IC50): > 10 µM
- IC90: > 10 µM

SMILES: Cc1ccccc1-c1ccc(CN2CCc3c(c(C(=O)NCc4ccccc4)nn3CCO)C2)cc1
- IC50 (PBLUC_HILL_SLOPE 9.2, PBLUC_R_SQUARED 0.549, read-out: LUCIFERASE INFECTION ASSAY - IC50): 2.35 µM
- IC90: 2.98 µM

SMILES: CC(C)(C)c1ccc(NC(=O)CSc2ccc(S(=O)(=O)N3CCN(Cc4ccccc4)CC3)cn2)cc1
- IC50 [1]: 4.44 µM
- IC90: 9.27 µM

SMILES: Cc1ccc2nc(-c3ccc(N(C)C)cc3)[nH]c2c1
- IC50 (FFLUC_HILL_SLOPE 0.944, FFLUC_R_SQUARED 0.925, PBLUC_HILL_SLOPE 0.907, PBLUC_R_SQUARED 0.785, read-out: LUCIFERASE INFECTION ASSAY - IC50): 0.53 µM
- IC90: 5.96 µM

SMILES: CCCn1c(N)c(C(=O)COC(=O)C2(c3ccc(F)cc3)CCCC2)c(=O)[nH]c1=O
- IC50 (PBLUC_HILL_SLOPE 3.75, PBLUC_R_SQUARED 0.743, read-out: LUCIFERASE INFECTION ASSAY - IC50): 4.66 µM
- IC90: 8.39 µM

SMILES: Cc1ccc(N/N=C(\C=N\N)C(=O)c2ccc(Cl)cc2)cc1
- IC50 (HEPG2TOX_HILL_SLOPE 1.68, HEPG2TOX_R_SQUARED 0.854, PBLUC_HILL_SLOPE 3.07, PBLUC_R_SQUARED 0.149, read-out: LUCIFERASE INFECTION ASSAY - IC50): 5.16 µM
- IC90: > 10.5 µM

SMILES: CCc1sc(C(=O)Nc2nc(-c3ccc(CNC(C)=O)cc3)cs2)cc1C
- IC50 [1]: > 10 µM
- IC90: > 10 µM

SMILES: COc1ccc(-c2nnc3ccc(-c4ccc5ncccc5c4)cn23)cc1OC
- IC50 (HEPG2TOX_HILL_SLOPE 0.239, HEPG2TOX_R_SQUARED 0.342, PBLUC_HILL_SLOPE 2.22, PBLUC_R_SQUARED 0.642, read-out: LUCIFERASE INFECTION ASSAY - IC50): 0.0248 µM
- IC90: 0.0668 µM

SMILES: CCCCCc1ccc(-c2nnc(Sc3ccc(C(F)(F)F)cc3[N+](=O)[O-])[nH]2)cc1
- IC50 (PBLUC_HILL_SLOPE 9.1, PBLUC_R_SQUARED 0.598, read-out: LUCIFERASE INFECTION ASSAY - IC50): 6.15 µM
- IC90: > 7.56 µM

SMILES: O=S(=O)(c1ccc(Cl)c(N=C2NN=C(c3c[nH]c4ccccc34)CS2)c1)N1CCOCC1
- IC50 (FFLUC_HILL_SLOPE 3.06, FFLUC_R_SQUARED 0.687, HEPG2TOX_HILL_SLOPE 3.66, HEPG2TOX_R_SQUARED 0.952, PBLUC_HILL_SLOPE 1.64, PBLUC_R_SQUARED 0.734, read-out: LUCIFERASE INFECTION ASSAY - IC50): 3.83 µM
- IC90: > 10 µM

SMILES: CCCCNC(=O)c1c(NC(=O)c2ccccc2F)nc2ccc(C)cn12
- IC50 (FFLUC_HILL_SLOPE 17.2, FFLUC_R_SQUARED 0.157, HEPG2TOX_HILL_SLOPE 8.23, HEPG2TOX_R_SQUARED 0.602, PBLUC_HILL_SLOPE 11.7, PBLUC_R_SQUARED 0.726, read-out: LUCIFERASE INFECTION ASSAY - IC50): 2.94 µM
- IC90: 3.54 µM

SMILES: COc1ccc(-c2c(C)nn3c(=O)cc(-c4ccccc4)[nH]c23)cc1
- IC50 (HEPG2TOX_HILL_SLOPE 10.3, HEPG2TOX_R_SQUARED 0.705, PBLUC_HILL_SLOPE 12.5, PBLUC_R_SQUARED 0.547, read-out: LUCIFERASE INFECTION ASSAY - IC50): 8.34 µM
- IC90: 9.94 µM

SMILES: N#Cc1[nH]c2ccc(Cl)cc2c1-c1ccccc1
- IC50 [1]: > 13.1 µM
- IC90: > 13.1 µM

SMILES: FC(F)(F)Oc1cccc(-c2nc3ccnc(Nc4ccccc4)c3[nH]2)c1
- IC50 (HEPG2TOX_HILL_SLOPE 7.94, HEPG2TOX_R_SQUARED 0.491, PBLUC_HILL_SLOPE 12.6, PBLUC_R_SQUARED 0.533, read-out: LUCIFERASE INFECTION ASSAY - IC50): 8.84 µM
- IC90: > 10 µM

SMILES: CCN(CC)c1nc(N)c2c(N)nc3c(c2c1C#N)CC(=O)N3c1cc(Cl)cc(Cl)c1
- IC50 (FFLUC_HILL_SLOPE 11.5, FFLUC_R_SQUARED 0.738, PBLUC_HILL_SLOPE 1.44, PBLUC_R_SQUARED 0.624, read-out: LUCIFERASE INFECTION ASSAY - IC50): 4.18 µM
- IC90: > 10 µM

SMILES: N#C/C(=C\c1ccc(Cl)cc1Cl)c1ccc(O)cc1
- IC50 (HEPG2TOX_HILL_SLOPE 4.92, HEPG2TOX_R_SQUARED 0.97, PBLUC_HILL_SLOPE 12.5, PBLUC_R_SQUARED 0.376, read-out: LUCIFERASE INFECTION ASSAY - IC50): 10.5 µM
- IC90: > 11.4 µM

SMILES: CC(C)c1cc(NCc2ccccn2)n2ncc(-c3ccccc3)c2n1
- IC50 (PBLUC_HILL_SLOPE 12.5, PBLUC_R_SQUARED 0.318, read-out: LUCIFERASE INFECTION ASSAY - IC50): 3.3 µM
- IC90: 3.94 µM

SMILES: Cc1nc2ccc(N/N=C(/C(=O)Nc3c(Cl)cccc3Cl)C(=O)c3ccccc3)cc2s1
- IC50 [1]: 5.17 µM
- IC90: 8.28 µM

SMILES: Cc1c(C)n(-c2nc3ccccc3s2)c2ncnc(NCCCN(C)C)c12
- IC50 (HEPG2TOX_HILL_SLOPE 12.8, HEPG2TOX_R_SQUARED 0.501, PBLUC_HILL_SLOPE 2.59, PBLUC_R_SQUARED 0.498, read-out: LUCIFERASE INFECTION ASSAY - IC50): 7.19 µM
- IC90: > 8.67 µM

SMILES: CC(C)(C)c1ccc(C(=O)NNC(=S)Nc2ccc(Cl)cc2)cc1
- IC50 (PBLUC_HILL_SLOPE 14.6, PBLUC_R_SQUARED 0.46, read-out: LUCIFERASE INFECTION ASSAY - IC50): 7.71 µM
- IC90: 8.97 µM

SMILES: Cc1ccccc1-n1nnc(C(=O)Nc2cccc(Br)c2)c1N
- IC50 (PBLUC_HILL_SLOPE 0.945, PBLUC_R_SQUARED 0.824, read-out: LUCIFERASE INFECTION ASSAY - IC50): 0.414 µM
- IC90: 4.24 µM

SMILES: Cc1nc(COc2ccc(F)cc2)sc1C(=O)Nc1nc2c(s1)CC(C)CC2 (configuration not stated)
- IC50 [1]: > 10 µM
- IC90: > 10 µM

SMILES: COc1cc(OC)nc(Nc2nc(C(N)C3CCCCC3)cs2)n1 (configuration not stated)
- IC50 (PBLUC_HILL_SLOPE 67.6, PBLUC_R_SQUARED 0.122, read-out: LUCIFERASE INFECTION ASSAY - IC50): 9.15 µM
- IC90: > 9.44 µM

SMILES: Cc1cc(Oc2ccc(C(F)(F)F)cc2N=CC(C#N)C#N)cc(C)c1Cl
- IC50 [1]: > 8.42 µM
- IC90: > 8.42 µM

SMILES: CC(=O)Nc1ccc(OC(=O)c2cc(C(C)(C)C)nn2Cc2c(C)cc(C)cc2C)cc1
- IC50 (FFLUC_HILL_SLOPE 42.8, FFLUC_R_SQUARED 0.589, PBLUC_HILL_SLOPE 8.27, PBLUC_R_SQUARED 0.64, read-out: LUCIFERASE INFECTION ASSAY - IC50): 2.83 µM
- IC90: 3.69 µM

SMILES: Cc1ccc(Sc2ccc(NC(=O)C3CCN(C(=O)c4ccoc4)CC3)cc2)c(C)c1
- IC50 (HEPG2TOX_HILL_SLOPE 3.01, HEPG2TOX_R_SQUARED 0.581, PBLUC_HILL_SLOPE 14.8, 16.7, PBLUC_R_SQUARED 0.181, 0.0620, read-out: LUCIFERASE INFECTION ASSAY - IC50): 9.11 µM
- IC90: 9.64 µM

SMILES: Cc1cc(C)cc(C(=O)/C=c2\[nH]c(=O)/c(=C\c3cccs3)s2)c1
- IC50 [1]: > 10 µM
- IC90: > 10 µM

SMILES: Clc1ccc(CN=C(Nc2ccccc2)NC2CCCCC2)cc1
- IC50 (PBLUC_HILL_SLOPE 18.9, PBLUC_R_SQUARED 0.472, read-out: LUCIFERASE INFECTION ASSAY - IC50): 8.42 µM
- IC90: 9.45 µM

SMILES: CCCCNC(=O)c1c(NC(=O)COc2ccccc2)nc2ccccn12
- IC50 (FFLUC_HILL_SLOPE 15.1, FFLUC_R_SQUARED 0.601, PBLUC_HILL_SLOPE 2.91, PBLUC_R_SQUARED 0.515, read-out: LUCIFERASE INFECTION ASSAY - IC50): 5.13 µM
- IC90: > 9.01 µM
